Source: ChEMBL document CHEMBL1127485, “Photoactivatable 2-(4'-azidotetrafluorophenyl)-5-tert-butyl-1,3-dithiane-bis- sulfone and related compounds as candidate irreversible probes for the GABA-gated chloride channels” (J Med Chem, 1994)

test: Binding affinity towards convulsant site of the GABAA receptor was determined in bovine cortical P2 membranes using [3H]TBOB as radioligand; format: cell membranes

Compared with CC(C)(C)C1CSC(C2=CC(=[N+]=[N-])C=C(Br)C2=O)SC1 (stereo unspecified), CC(C)(C)C1CSC(C2=CC(=O)C(Br)=CC2=[N+]=[N-])SC1 (stereo unspecified) is 1.6-fold higher in Ki: 2200 nM for the first, 3600 nM for the second. The first binds more tightly here.

Compared with CC(C)(C)C1CSC(C2=CC(=[N+]=[N-])C=CC2=O)SC1 (stereo unspecified), CC(C)(C)C1CSC(C2=CC(=O)C=CC2=[N+]=[N-])SC1 (stereo unspecified) is 2.1-fold higher in Ki: 14000 nM for the first, 30000 nM for the second.

CC(C)(C)C1CS(=O)(=O)C(C2=CC(=[N+]=[N-])C=CC2=O)S(=O)(=O)C1 (stereo unspecified) and CC(C)(C)C1CS(=O)(=O)C(C2=CC(=[N+]=[N-])C=C(Br)C2=O)S(=O)(=O)C1 (stereo unspecified) cannot be ordered by Ki: 250000 nM for the first, > 30000 nM for the second.

Compared with CC(C)(C)C1CSC(c2ccccc2O)SC1 (stereo unspecified), CC(C)(C)C1CSC(c2ccccc2)SC1 (stereo unspecified) is 7.2-fold lower in Ki: 1800 nM for the first, 250 nM for the second.

Going from CC(C)(C)C1CS(=O)(=O)C(c2cc(O)c(Br)cc2[N+](=O)[O-])S(=O)(=O)C1 (stereo unspecified) to CC(C)(C)C1CS(=O)(=O)C(c2cc([N+](=O)[O-])cc(Br)c2O)S(=O)(=O)C1 (stereo unspecified), the Ki falls from > 30000 nM to 530 nM.

Going from CC(C)(C)C12COC(c3ccccc3)(OC1)OC2 to CC(C)(C)C12COC(c3ccccc3O)(OC1)OC2, the Ki rises from 18 nM to 59 nM (3.3-fold). The first binds more tightly here.

Going from CC(C)(C)C1CSC(c2cc([N+](=O)[O-])cc(Br)c2O)SC1 (stereo unspecified) to CC(C)(C)C1CSC(c2cc(O)c(Br)cc2[N+](=O)[O-])SC1 (stereo unspecified), the Ki rises from 220 nM to 4500 nM (20-fold).

Compared with CC(C)(C)C1CSC(c2cc(O)ccc2[N+](=O)[O-])SC1 (stereo unspecified), CC(C)(C)C1CSC(c2cc([N+](=O)[O-])ccc2O)SC1 (stereo unspecified) is 14-fold lower in Ki: 8000 nM for the first, 560 nM for the second.

First: CC(C)(C)C1CS(=O)(=O)C(c2ccccc2O)S(=O)(=O)C1 (stereo unspecified)
Second: CC(C)(C)C1CS(=O)(=O)C(c2ccccc2)S(=O)(=O)C1 (stereo unspecified)
The Ki of the first is 47-fold higher: 23900 nM for the first, 510 nM for the second. The second binds more tightly here.

First: CC(C)(C)C12COC(c3ccc(Br)cc3)(OC1)OC2
Second: CC(C)(C)C12COC(C3=CC(=O)C(Br)=CC3=[N+]=[N-])(OC1)OC2
The Ki of the first is 67-fold lower: 9 nM for the first, 600 nM for the second. The first binds more tightly here.

Compared with CC(C)(C)C1CSC(c2ccc(Br)cc2)SC1 (stereo unspecified), CC(C)(C)C1CS(=O)(=O)C(c2ccc(Br)cc2)S(=O)(=O)C1 (stereo unspecified) is 93-fold lower in Ki: 280 nM for the first, 3 nM for the second.

Going from CC(C)(C)C1CS(=O)(=O)C(c2c(F)c(F)c(N=[N+]=[N-])c(F)c2F)S(=O)(=O)C1 (stereo unspecified) to CC(C)(C)C1CS(=O)(=O)C(c2cc(O)ccc2[N+](=O)[O-])S(=O)(=O)C1 (stereo unspecified), the Ki rises from 180 nM to 52000 nM (290-fold). The first binds more tightly here.

CC(C)(C)C1CS(=O)(=O)C(c2cc([N+](=O)[O-])ccc2O)S(=O)(=O)C1 (stereo unspecified) gave a Ki of 18000 nM.

test: Binding affinity for convulsant site of GABA-A receptor in bovine cortical P2 membranes using [3H]TBOB as radioligand (Unstable); format: cell membranes, Bos taurus

With CC(C)(C)C1CSC(c2c(F)c(F)c(N=[N+]=[N-])c(F)c2F)SC1 (stereo unspecified) the Ki was “Unstable”.
